Assay results taken from publication PMC12599248, “Selectivity profiles and substrate recognition of Rab-phosphorylating kinases” (Biochemical Journal, 2025).

How the values were obtained:
Rab8A = biological target: T1, Rab8A (Homo sapiens, UniProt P61006); test: dynamic scanning fluorimetry (SYPRO Orange); format: binding; details: 1 mM nucleotide, 4 uM protein, 2.5 mM MgCl2, pH 7.4; shift relative to apo
T1 construct: near full-length without C-terminal prenylation region; pET-28a, His6 tag cut by TEV; E. coli BL21(DE3)
T1 sequence (P61006 1-203 limits assumed): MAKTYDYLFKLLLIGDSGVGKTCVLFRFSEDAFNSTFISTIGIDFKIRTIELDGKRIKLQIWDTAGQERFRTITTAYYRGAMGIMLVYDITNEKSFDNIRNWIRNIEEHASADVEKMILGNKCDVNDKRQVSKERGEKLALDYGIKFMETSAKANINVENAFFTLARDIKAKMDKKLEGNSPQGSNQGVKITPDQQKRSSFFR

Rab12 = biological target: T2, Rab12 (Homo sapiens, UniProt Q6IQ22); test: dynamic scanning fluorimetry (SYPRO Orange); format: binding; details: 1 mM nucleotide, 4 uM protein, 2.5 mM MgCl2, pH 7.4
T2 construct: near full-length without C-terminal prenylation region; pET-28a, His6 tag cut by TEV; E. coli BL21(DE3)
T2 sequence (Q6IQ22 97-318 limits assumed): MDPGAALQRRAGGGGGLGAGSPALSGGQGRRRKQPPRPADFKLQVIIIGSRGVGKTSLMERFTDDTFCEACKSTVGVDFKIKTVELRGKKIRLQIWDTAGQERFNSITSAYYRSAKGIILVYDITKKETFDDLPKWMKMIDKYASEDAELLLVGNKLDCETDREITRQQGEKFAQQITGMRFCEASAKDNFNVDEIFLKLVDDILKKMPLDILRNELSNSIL

Rab1A = biological target: T3, Rab1A (Homo sapiens, UniProt P62820); test: dynamic scanning fluorimetry (SYPRO Orange); format: binding; details: 1 mM nucleotide, 4 uM protein, 2.5 mM MgCl2, pH 7.4
T3 construct: near full-length without C-terminal prenylation region; pET-28a, His6 tag cut by TEV; E. coli BL21(DE3)

Rab43 = biological target: T4, Rab43 (Homo sapiens, UniProt Q86YS6); test: dynamic scanning fluorimetry (SYPRO Orange); format: binding; details: 1 mM nucleotide, 4 uM protein, 2.5 mM MgCl2, pH 7.4
T4 construct: near full-length without C-terminal prenylation region; pET-28a, His6 tag cut by TEV; E. coli BL21(DE3)
T4 sequence (Q86YS6 1-185 limits assumed): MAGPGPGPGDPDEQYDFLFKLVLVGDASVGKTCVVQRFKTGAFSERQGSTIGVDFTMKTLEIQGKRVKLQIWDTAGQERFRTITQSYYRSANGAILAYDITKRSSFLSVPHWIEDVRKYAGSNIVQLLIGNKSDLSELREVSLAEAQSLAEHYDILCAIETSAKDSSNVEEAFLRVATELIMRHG

Rab29 = biological target: T5, Rab29 (Homo sapiens, UniProt O14966); test: dynamic scanning fluorimetry (SYPRO Orange); format: binding; details: 1 mM nucleotide, 4 uM protein, 2.5 mM MgCl2, pH 7.4
T5 construct: near full-length without C-terminal prenylation region; pET-28a, His6 tag cut by TEV; E. coli BL21(DE3)
T5 sequence (O14966 1-195 limits assumed): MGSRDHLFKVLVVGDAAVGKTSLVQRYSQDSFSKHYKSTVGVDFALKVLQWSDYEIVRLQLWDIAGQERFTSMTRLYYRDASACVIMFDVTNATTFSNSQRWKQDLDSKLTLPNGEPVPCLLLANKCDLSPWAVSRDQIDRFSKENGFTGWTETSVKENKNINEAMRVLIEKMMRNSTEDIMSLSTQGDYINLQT

Rab8B = biological target: T6, Rab8B (Homo sapiens, UniProt Q92930); test: dynamic scanning fluorimetry (SYPRO Orange); format: binding; details: 1 mM nucleotide, 4 uM protein, 2.5 mM MgCl2, pH 7.4
T6 construct: near full-length without C-terminal prenylation region; pET-28a, His6 tag cut by TEV; E. coli BL21(DE3)
T6 sequence (Q92930 1-203 limits assumed): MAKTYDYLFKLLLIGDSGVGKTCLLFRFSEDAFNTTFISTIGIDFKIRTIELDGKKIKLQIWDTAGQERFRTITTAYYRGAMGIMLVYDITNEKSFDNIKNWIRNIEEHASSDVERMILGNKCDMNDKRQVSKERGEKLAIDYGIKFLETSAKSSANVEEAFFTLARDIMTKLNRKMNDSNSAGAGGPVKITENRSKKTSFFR

Rab15 = biological target: T7, Rab15 (Homo sapiens, UniProt P59190); test: dynamic scanning fluorimetry (SYPRO Orange); format: binding; details: 1 mM nucleotide, 4 uM protein, 2.5 mM MgCl2, pH 7.4
T7 construct: near full-length without C-terminal prenylation region; pET-28a, His6 tag cut by TEV; E. coli BL21(DE3)
T7 sequence (P59190 1-208 limits assumed): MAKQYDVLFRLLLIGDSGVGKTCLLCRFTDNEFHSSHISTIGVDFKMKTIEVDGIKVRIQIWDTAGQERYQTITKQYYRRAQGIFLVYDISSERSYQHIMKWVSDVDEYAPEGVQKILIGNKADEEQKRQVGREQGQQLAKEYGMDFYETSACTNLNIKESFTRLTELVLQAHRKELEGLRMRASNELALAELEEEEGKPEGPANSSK

Rab7A = biological target: T8, Rab7A (Homo sapiens, UniProt P51149); test: dynamic scanning fluorimetry (SYPRO Orange); format: binding; details: 1 mM nucleotide, 4 uM protein, 2.5 mM MgCl2, pH 7.4
T8 construct: near full-length without C-terminal prenylation region; pET-28a, His6 tag cut by TEV; E. coli BL21(DE3)

Rab13 = biological target: T9, Rab13 (Homo sapiens, UniProt P51153); test: dynamic scanning fluorimetry (SYPRO Orange); format: binding; details: 1 mM nucleotide, 4 uM protein, 2.5 mM MgCl2, pH 7.4
T9 construct: near full-length without C-terminal prenylation region; pET-28a, His6 tag cut by TEV; E. coli BL21(DE3)
T9 sequence (P51153 1-180 limits assumed): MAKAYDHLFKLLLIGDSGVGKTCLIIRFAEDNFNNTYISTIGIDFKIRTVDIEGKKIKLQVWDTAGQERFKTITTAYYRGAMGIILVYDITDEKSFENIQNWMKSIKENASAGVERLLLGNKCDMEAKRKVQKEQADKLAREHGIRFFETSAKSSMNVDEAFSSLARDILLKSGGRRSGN

Rab9A = biological target: T10, Rab9A (Homo sapiens, UniProt P51151); test: dynamic scanning fluorimetry (SYPRO Orange); format: binding; details: 1 mM nucleotide, 4 uM protein, 2.5 mM MgCl2, pH 7.4
T10 construct: near full-length without C-terminal prenylation region; pET-28a, His6 tag cut by TEV; E. coli BL21(DE3)
T10 sequence (P51151 1-180 limits assumed): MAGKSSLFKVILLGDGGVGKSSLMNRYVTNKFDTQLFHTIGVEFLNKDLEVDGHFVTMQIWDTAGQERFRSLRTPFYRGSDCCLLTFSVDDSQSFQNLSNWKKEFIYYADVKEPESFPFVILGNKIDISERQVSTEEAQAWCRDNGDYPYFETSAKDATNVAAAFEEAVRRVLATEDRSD

Rab2A = biological target: T11, Rab2A (Homo sapiens, UniProt P61019); test: dynamic scanning fluorimetry (SYPRO Orange); format: binding; details: 1 mM nucleotide, 4 uM protein, 2.5 mM MgCl2, pH 7.4
T11 construct: near full-length without C-terminal prenylation region; pET-28a, His6 tag cut by TEV; E. coli BL21(DE3)

Rab10 = biological target: T12, Rab10 (Homo sapiens, UniProt P61026); test: dynamic scanning fluorimetry (SYPRO Orange); format: binding; details: 1 mM nucleotide, 4 uM protein, 2.5 mM MgCl2, pH 7.4
T12 construct: near full-length without C-terminal prenylation region; pET-28a, His6 tag cut by TEV; E. coli BL21(DE3)
T12 sequence (P61026 1-181 limits assumed): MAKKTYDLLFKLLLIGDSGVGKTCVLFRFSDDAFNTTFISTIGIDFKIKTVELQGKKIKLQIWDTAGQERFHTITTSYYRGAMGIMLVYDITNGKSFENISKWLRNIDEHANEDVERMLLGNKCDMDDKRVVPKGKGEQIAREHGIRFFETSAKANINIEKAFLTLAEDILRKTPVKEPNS

Rab3A = biological target: T13, Rab3A (Homo sapiens, UniProt P20336); test: dynamic scanning fluorimetry (SYPRO Orange); format: binding; details: 1 mM nucleotide, 4 uM protein, 2.5 mM MgCl2, pH 7.4
T13 construct: near full-length without C-terminal prenylation region; pET-28a, His6 tag cut by TEV; E. coli BL21(DE3)
T13 sequence (P20336 1-200 limits assumed): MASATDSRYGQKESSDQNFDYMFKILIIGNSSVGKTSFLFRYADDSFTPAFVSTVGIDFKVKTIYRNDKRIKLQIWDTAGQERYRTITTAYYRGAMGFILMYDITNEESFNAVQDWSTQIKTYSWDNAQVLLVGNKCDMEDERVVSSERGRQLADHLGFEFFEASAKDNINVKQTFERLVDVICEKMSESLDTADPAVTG

[1] = biological target: LRRK2 (Leucine-rich repeat kinase 2) (UniProt Q5S007)
LRRK2 (Leucine-rich repeat kinase 2), sequence (Q5S007 whole entry): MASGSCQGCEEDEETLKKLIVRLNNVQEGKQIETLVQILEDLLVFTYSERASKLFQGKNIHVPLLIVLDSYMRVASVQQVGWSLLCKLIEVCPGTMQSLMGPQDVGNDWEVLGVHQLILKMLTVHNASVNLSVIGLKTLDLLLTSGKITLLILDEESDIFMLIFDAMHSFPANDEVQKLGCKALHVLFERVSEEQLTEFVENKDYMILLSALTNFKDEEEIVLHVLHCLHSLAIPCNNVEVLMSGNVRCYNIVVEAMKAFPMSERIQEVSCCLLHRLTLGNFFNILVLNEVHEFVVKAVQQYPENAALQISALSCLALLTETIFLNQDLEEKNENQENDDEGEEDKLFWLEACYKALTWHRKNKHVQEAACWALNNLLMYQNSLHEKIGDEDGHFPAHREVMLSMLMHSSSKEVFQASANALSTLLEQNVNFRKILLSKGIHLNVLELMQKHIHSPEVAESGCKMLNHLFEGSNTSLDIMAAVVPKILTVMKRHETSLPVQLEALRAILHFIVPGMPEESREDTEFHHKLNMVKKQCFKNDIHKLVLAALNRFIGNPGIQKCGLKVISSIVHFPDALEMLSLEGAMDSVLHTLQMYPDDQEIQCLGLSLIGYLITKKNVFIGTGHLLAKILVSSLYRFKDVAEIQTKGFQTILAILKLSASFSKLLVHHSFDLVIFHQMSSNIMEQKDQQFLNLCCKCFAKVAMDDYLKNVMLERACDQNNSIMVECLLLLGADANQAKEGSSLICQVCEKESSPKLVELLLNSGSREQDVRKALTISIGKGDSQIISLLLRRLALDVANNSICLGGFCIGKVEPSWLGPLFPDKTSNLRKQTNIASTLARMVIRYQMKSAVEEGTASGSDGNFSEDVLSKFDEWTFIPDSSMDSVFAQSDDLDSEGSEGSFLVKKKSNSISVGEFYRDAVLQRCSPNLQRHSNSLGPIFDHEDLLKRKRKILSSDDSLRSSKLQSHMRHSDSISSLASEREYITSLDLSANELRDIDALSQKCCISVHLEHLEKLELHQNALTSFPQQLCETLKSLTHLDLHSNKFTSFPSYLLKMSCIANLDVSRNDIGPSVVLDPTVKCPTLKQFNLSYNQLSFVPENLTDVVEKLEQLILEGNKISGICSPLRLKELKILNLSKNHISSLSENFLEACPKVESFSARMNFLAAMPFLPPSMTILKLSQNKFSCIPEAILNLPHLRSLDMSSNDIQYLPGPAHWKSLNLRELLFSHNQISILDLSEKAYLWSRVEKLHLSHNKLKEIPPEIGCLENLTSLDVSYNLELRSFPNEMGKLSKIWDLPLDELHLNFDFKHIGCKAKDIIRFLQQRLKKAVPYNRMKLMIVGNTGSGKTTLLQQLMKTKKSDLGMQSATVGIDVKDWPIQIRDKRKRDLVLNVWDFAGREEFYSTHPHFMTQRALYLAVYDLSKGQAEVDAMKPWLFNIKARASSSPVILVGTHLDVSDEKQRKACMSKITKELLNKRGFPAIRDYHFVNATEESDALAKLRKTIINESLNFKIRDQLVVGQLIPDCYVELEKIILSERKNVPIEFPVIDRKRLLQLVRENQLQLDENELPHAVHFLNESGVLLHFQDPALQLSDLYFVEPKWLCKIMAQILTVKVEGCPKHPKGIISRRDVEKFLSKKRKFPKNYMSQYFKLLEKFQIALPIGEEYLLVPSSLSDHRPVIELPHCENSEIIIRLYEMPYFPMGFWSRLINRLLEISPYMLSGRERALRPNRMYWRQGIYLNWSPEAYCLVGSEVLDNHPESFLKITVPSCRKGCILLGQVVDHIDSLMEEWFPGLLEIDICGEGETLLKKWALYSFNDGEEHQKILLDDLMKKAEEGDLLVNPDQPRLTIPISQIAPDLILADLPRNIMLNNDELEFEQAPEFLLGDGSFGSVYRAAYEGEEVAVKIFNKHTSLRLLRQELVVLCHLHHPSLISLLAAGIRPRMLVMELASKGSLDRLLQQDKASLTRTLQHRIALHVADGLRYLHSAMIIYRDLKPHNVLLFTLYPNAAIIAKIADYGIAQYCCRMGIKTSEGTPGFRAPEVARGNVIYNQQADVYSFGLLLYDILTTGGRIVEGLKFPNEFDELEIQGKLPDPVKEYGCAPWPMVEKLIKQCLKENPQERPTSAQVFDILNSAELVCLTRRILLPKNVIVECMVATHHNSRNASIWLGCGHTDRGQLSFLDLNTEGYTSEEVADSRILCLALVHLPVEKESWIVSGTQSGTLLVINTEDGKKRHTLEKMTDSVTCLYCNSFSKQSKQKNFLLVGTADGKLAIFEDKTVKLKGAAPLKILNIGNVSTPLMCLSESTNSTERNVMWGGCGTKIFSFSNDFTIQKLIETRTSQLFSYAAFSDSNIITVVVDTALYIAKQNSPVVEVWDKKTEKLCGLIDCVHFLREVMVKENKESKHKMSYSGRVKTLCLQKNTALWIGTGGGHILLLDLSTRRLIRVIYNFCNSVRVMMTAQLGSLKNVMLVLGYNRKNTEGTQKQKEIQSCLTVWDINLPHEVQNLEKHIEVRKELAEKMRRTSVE

T8 sequence (P51149 1-185 limits assumed): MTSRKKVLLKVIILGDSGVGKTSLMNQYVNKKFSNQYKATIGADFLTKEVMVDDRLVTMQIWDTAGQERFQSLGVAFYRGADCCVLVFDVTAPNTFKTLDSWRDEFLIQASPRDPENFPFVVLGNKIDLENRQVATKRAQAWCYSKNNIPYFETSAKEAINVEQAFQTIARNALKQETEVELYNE
T11 sequence (P61019 1-210 limits assumed): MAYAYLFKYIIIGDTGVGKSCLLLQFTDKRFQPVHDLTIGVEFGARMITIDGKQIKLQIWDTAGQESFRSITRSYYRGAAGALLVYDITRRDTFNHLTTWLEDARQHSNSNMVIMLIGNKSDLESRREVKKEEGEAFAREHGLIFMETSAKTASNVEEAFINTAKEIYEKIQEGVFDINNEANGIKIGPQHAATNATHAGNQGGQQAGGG
T3 sequence (P62820 1-203 limits assumed): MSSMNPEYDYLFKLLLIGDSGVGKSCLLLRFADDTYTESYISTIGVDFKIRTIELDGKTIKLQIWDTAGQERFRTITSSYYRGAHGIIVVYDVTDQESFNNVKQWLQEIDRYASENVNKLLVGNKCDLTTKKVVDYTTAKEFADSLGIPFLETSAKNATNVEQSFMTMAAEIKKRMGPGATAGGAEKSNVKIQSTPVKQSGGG

Row | Compound | dTm (Rab8A) | Tm (Rab7A) | Tm (Rab13) | Tm (Rab9A) | Tm (Rab10) | further results
1 | Nc1nc2c(ncn2[C@@H]2O[C@H](COP(=O)(O)OP(=O)(O)O)[C@@H](O)[C@H]2O)c(=O)[nH]1 [GDP] | 15 K | All Rabs from the panel bound to and were stabilized by guanine nucleotides. | for several Rabs including Rab9A and Rab13, the Rab:GDP and Rab:GTP complexes displayed equal stability | for several Rabs including Rab9A and Rab13, the Rab:GDP and Rab:GTP complexes displayed equal stability | All Rabs from the panel bound to and were stabilized by guanine nucleotides. | Tm (Rab12): All Rabs from the panel bound to and were stabilized by guanine nucleotides.; Tm (Rab1A): All Rabs from the panel bound to and were stabilized by guanine nucleotides.; Tm (Rab43): All Rabs from the panel bound to and were stabilized by guanine nucleotides.; Tm (Rab29): All Rabs from the panel bound to and were stabilized by guanine nucleotides.; Tm (Rab8B): All Rabs from the panel bound to and were stabilized by guanine nucleotides.; Tm (Rab15): All Rabs from the panel bound to and were stabilized by guanine nucleotides.; Tm (Rab2A): All Rabs from the panel bound to and were stabilized by guanine nucleotides.; Tm (Rab3A): All Rabs from the panel bound to and were stabilized by guanine nucleotides.
2 | Rab8A R104A (from UniProt P61006 1-207) (natural protein) | – | – | – | – | – | T72 phosphograde of the Rab8A:GDP variant after phosphorylation by LRRK2, relative to wildtype Rab8A (ESI-TOF MS kinase activity assay) (fold (reduced)) [1]: 2
3 | Rab8A E108R (from UniProt P61006 1-207) (natural protein) | – | – | – | – | – | T72 phosphograde of the Rab8A:GDP variant after phosphorylation by LRRK2, relative to wildtype Rab8A (ESI-TOF MS kinase activity assay) (fold (increase)) [1]: 18
4 | Nc1nc2c(ncn2[C@@H]2O[C@H](COP(=O)(O)OP(=O)(O)OP(=O)(O)O)[C@@H](O)[C@H]2O)c(=O)[nH]1 [GTP] | 21 K | All Rabs from the panel bound to and were stabilized by guanine nucleotides. | for several Rabs including Rab9A and Rab13, the Rab:GDP and Rab:GTP complexes displayed equal stability | for several Rabs including Rab9A and Rab13, the Rab:GDP and Rab:GTP complexes displayed equal stability | All Rabs from the panel bound to and were stabilized by guanine nucleotides. | –
